# Earlier results in patent US9828573B2, “Alcohol composition and derivatives thereof” (SHELL OIL COMPANY, priority 2015, dated 2017).
# System: Proponibacterium acnes
# Details: Journal of Natural Products Vol. 57, No. 1, pp. 9-17, January 1994
smiles,measurement,value
"CCCCCCCCCCCCCCCO [Normal 1-pentadecanol, 1-pentadecanol]",activity against Proponibacterium acnes,specific activity
